Laboratory results: paper PMC9577195, “Pharmacokinetics, bioavailability, and plasma protein binding study of glytrexate, a novel multitarget antifolate” (Frontiers in Pharmacology, 2022)

What was measured:
Format in all cases: in vitro ADME
[1] = Storage stability of glytrexate in rat plasma (short-term, autosampler, freeze-thaw, long-term)
Protocol: For short-term and long-term stability, plasma samples (LQC and HQC) were kept at room temperature for 8 h and at −20°C for 14 consecutive days, respectively. To evaluate the freeze-thaw stability, plasma samples (n = 6) were investigated through three cycles from −20°C to 25°C, and the stability of the postpreparative samples after 8 h was evaluated in autosampler vials at 4°C. The results were evaluated by calculating the peak area ratio (glytrexate/IS) of the stability samples. If glytrexate is stable in rat plasma, the accuracy (RE) should be within ±15% and the precision (RSD) < 15%.

[2] = Plasma protein binding rate by ultrafiltration, human plasma
Protocol: (§1) The glytrexate stock solution was diluted with 20% methanol (1% formic acid) to three mass concentrations of 50, 100, and 200 μg/ml for use. One hundred microliters of glytrexate solution of the corresponding concentration (3 duplicates each in parallel) was added to 900 μl of rat/human plasma, vortexed and mixed well to prepare plasma samples with plasma concentrations of 5, 10, and 20 μg/ml.
(§2) The plasma sample was placed in a constant temperature water bath at 37°C for a certain period to obtain an incubation solution. After the incubation solution was removed, it was placed on ice to maintain a low temperature, transferred to a filtrate tube (500 μl), and placed in a low-temperature refrigerated centrifuge at 4°C and 14,000 rpm for 20 min to obtain filtrate.
(§3) The test tube containing the drug concentration was incubated in a constant temperature water bath at 37°C. Each sample was obtained at 10 min, 30 min, 60 min, 120 min, 240 min, and 360 min and the drug concentration before and after ultrafiltration was determined. The plasma protein binding rate (%) = [(Cincubation solution-CUltrafiltrate)/Cincubation solution]×100%. GraphPad Prism 8 software was used to perform a one-way analysis of variance on the plasma protein binding rate of glytrexate between different mass concentrations in the same species.

[3] = Metabolic stability in human liver microsomes; conditions: 37°C
Protocol: The test tube containing the drug concentration was incubated in a constant temperature water bath at 37°C. Each sample was obtained at 0, 0.5, 1.0, 1.5, 2.0, and 3.0 h, and the drug concentration was measured.
The metabolic stability of glytrexate was determined by incubation with human liver microsomes at 37°C. The reaction in the incubation system containing 10 μl of glytrexate (1 mg/ml), 50 μl of liver microsomes (1 mg/ml), and 10 μl of PBS (pH 7.4) was initiated by the addition of 30 μl of NADPH after 5 min of preincubation. The total incubation volume was 100 μl. The reaction was terminated at predefined time points (0, 0.5, 1, 1.5, 2, and 3 h). The incubations were conducted in triplicate.
Fifty microliters of the above solution was accurately drawn at different incubation time points, and 155 μl of ice-cold methanol (1% formic acid) and 5 μl of IS solution were added. The mixture was vortexed for 60 s and centrifuged at 14,000 rpm for 10 min. […] An appropriate amount of the supernatant was placed into the sample vial, and analyzed. […]
All samples were analyzed using the established LC‒MS/MS method, and MultiQuant 3.0 software was used for data processing. The glytrexate concentration at each time point was calculated, the remaining percentage was calculated, and the concentration change trend was analyzed.

[4] = Plasma protein binding rate by ultrafiltration, rat plasma
Protocol: as §1, §2, §3

[5] = 4°C for 8 h in rat plasma, spiked 5 ng/ml
[6] = 4°C for 8 h in rat plasma, spiked 1600 ng/ml
[7] = room temperature for 8 h in rat plasma, spiked 5 ng/ml
[8] = room temperature for 8 h in rat plasma, spiked 1600 ng/ml
[9] = three freeze‒thaw cycles in rat plasma, spiked 5 ng/ml
[10] = three freeze‒thaw cycles in rat plasma, spiked 1600 ng/ml
[11] = −20°C for 14 days in rat plasma, spiked 5 ng/ml
[12] = −20°C for 14 days in rat plasma, spiked 1600 ng/ml
[13] = 5 μg/ml, 37°C, 30 min incubation, ultrafiltration
[14] = 10 μg/ml, 37°C, 30 min incubation, ultrafiltration
[15] = 20 μg/ml, 37°C, 30 min incubation, ultrafiltration

Nc1nc2[nH]c(CC(=O)NCC(=O)N[C@@H](CCC(=O)O)C(=O)O)cc2c(=O)[nH]1 [glytrexate, (S)-2-{2-[2-(2-amino-4-oxo-4,7-dihydro-3H-pyrrolo [2,3-d]pyrimidin-6-yl)-acetylamino]-acetylamino}-pentanedioic acid]
% Deviation after storage [1, 5]: −11.50%
Mean measured concentration after storage [1, 5]: 4.43 ± 0.21 ng/mL
% Deviation after storage [1, 6]: −2.11%
Mean measured concentration after storage [1, 6]: 1566.21 ± 100.13 ng/mL
% Deviation after storage [1, 7]: −10.23%
Mean measured concentration after storage [1, 7]: 4.49 ± 0.40 ng/mL
% Deviation after storage [1, 8]: −0.82%
Mean measured concentration after storage [1, 8]: 1586.82 ± 103.89 ng/mL
% Deviation after storage [1, 9]: −2.27%
Mean measured concentration after storage [1, 9]: 4.89 ± 0.68 ng/mL
% Deviation after storage [1, 10]: −1.81%
Mean measured concentration after storage [1, 10]: 1571.07 ± 105.54 ng/mL
% Deviation after storage [1, 11]: −6.40%
Mean measured concentration after storage [1, 11]: 4.68 ± 0.40 ng/mL
% Deviation after storage [1, 12]: −2.01%
Mean measured concentration after storage [1, 12]: 1567.82 ± 112.14 ng/mL
fraction unbound at 30 min, 5 μg/ml [2, 13]: 0.758
fraction unbound at 30 min, 10 μg/ml [2, 14]: 0.754
fraction unbound at 30 min, 20 μg/ml [2, 15]: 0.807
fraction unbound ([2]; over 5, 10 and 20 μg/ml): ~0.75
metabolic stability in human liver microsomes (in words) ([3]; up to 3 h): good microsomal stability
half-life at 0.1 mg/ml ([3]; human, liver microsomes, pH 7.4, NADPH, regression of ln remaining vs incubation time, read-out: half-life (t1/2) in human liver microsomes): 1.83 h
fraction unbound at 30 min, 5 μg/ml [4, 13]: 0.863
fraction unbound at 30 min, 10 μg/ml [4, 14]: 0.813
fraction unbound at 30 min, 20 μg/ml [4, 15]: 0.947
fraction unbound at 30 min ([4]; over 5, 10 and 20 μg/ml): > 0.7
